Molecules are shown by their SMILES. Where a SMILES comes first, the peptide text is derived from it. [ ]: non-standard residue; d: D form. Aoe = N[C@@H](CCCCCC(=O)[C@@H]1CO1)C(=O)O

A short description of the experiment: Treatment of diabetes mellitus with other HDAC regulators instead of givinostat (Example 7). The settings on record: used instead of givinostat; model and dose not stated. The experiment is classed as in vivo.
In the case of `O=C(CCCCCCCC(=O)NO)NO` [azelaoyl-bis-hydroxamic acid], the diabetes mellitus outcome is on record as “similarly cured”.
Next, `CN(C)CCCNC(=O)/C(=C/CCCCC(=O)NO)COc1cccc2ccccc12` [CG200745]: “similarly cured”; `Cn1cc(CNCC2CCN(c3ncc(C(=O)NO)cn3)CC2)c2ccccc21` [quisinostat]: “similarly cured”; `CN(C)Cc1c(C(=O)NCCOc2ccc(C(=O)NO)cc2)oc2ccccc12` [abexinostat]: “similarly cured”.
Next, `O=C(CCCCCCC(=O)Nc1ccccc1)NO` [vorinostat, suberoylanilide hydroxamic acid]: “similarly cured”; `O=C(CCCCCCC(=O)Nc1ccc([C@H]2O[C@@H](CSc3nc(-c4ccccc4)c(-c4ccccc4)o3)C[C@@H](c3ccc(CO)cc3)O2)cc1)NO` [Tubacin]: “similarly cured”; `C=CCSSSCC=C` [diallyl trisulfide]: “similarly cured”.
Next, `CCCC(=O)OCOC(=O)C(C)(C)C` [(pivaloyloxy)methyl butyrate]: “similarly cured”; `CC(/C=C/C(=O)NO)=C\[C@@H](C)C(=O)c1ccc(N(C)C)cc1` [trichostatin A]: “similarly cured”.
In the case of `O=C(C=Cc1cccc(C(=O)NO)c1)NO` [m-carboxycinnamic acid bis-hydroxamide], the diabetes mellitus outcome is “similarly cured”.
Next, `O=C(/C=C/c1ccc(CN(CCO)CCc2c[nH]c3ccccc23)cc1)NO` [dacinostat]: “similarly cured”.
For the compound `O=C(NO)c1cnc(N2C[C@@H]3[C@H](C2)[C@H]3NCc2ccc3cc(F)ccc3n2)nc1` [nanatinostat], the diabetes mellitus outcome is “similarly cured”.
Regarding `O=C(/C=C/c1cccc(S(=O)(=O)Nc2ccccc2)c1)NO` [belinostat], the diabetes mellitus outcome is “similarly cured”.
To `CC(=O)Nc1ccc(C(=O)Nc2ccccc2N)cc1` [tacedinaline] belongs “similarly cured”; to `O=C(CCCCCCNC(=O)c1cnc(N(c2ccccc2)c2ccccc2)nc1)NO` [rocilinostat], “similarly cured”; to `Nc1ccccc1NC(=O)c1ccc(CNC(=O)OCc2cccnc2)cc1` [entinostat], “similarly cured”.
To `O=C(CCCCCN1C(=O)c2cccc3cccc(c23)C1=O)NO` [scriptaid] belongs “similarly cured”; to `O=C1N[C@@H](Cc2ccccc2)C(=O)N2CCC[C@@H]2C(=O)N[C@@H](CCCCCC(=O)[C@@H]2CO2)C(=O)N[C@H]1Cc1ccccc1` [trapoxin] (cyclo(FF[dP][Aoe])), “similarly cured”.
As to `CN(C)Cc1ccc(S(=O)(=O)n2ccc(/C=C/C(=O)NO)c2)cc1` [resminostat], the diabetes mellitus outcome is on record as “similarly cured”.
Take `CN(C)c1ccc(C(=O)NCc2ccc(/C=C/C(=O)NO)cc2)cc1` [SK-7041]: the diabetes mellitus outcome is listed as “similarly cured”.
Next, `O=C(CCCCCCSc1ccc2ccccc2c1)NO` [(N-hydroxy-7-2-naphthylthio)heptanomide]: “similarly cured”.
Next, `O=C(CCC1=CCCN(CCCc2ccccc2)C1=O)NO` [KBH-A42]: “similarly cured”; `CCCCc1nc2cc(/C=C/C(=O)NO)ccc2n1CCN(CC)CC` [pracinostat]: “similarly cured”.
Next, `O=C(O)CCCc1ccccc1` [4-phenylbutyric acid]: “similarly cured”; `CCCC(=O)[O-].[Na+]` [sodium butyrate]: “similarly cured”; `Nc1ccccc1NC(=O)c1ccc(CNc2nccc(-c3cccnc3)n2)cc1` [mocetinostat]: “similarly cured”.

(Values after patent EP4424327A1, “METHOD OR AGENT WITH HDAC REGULATOR, FOR TREATMENT OF DIABETES AND COMPLICATIONS” (Biozipcode, Inc., priority 2021, dated 2023).)
